Article PMC7900799, “Synthesis, antibiotic structure–activity relationships, and cellulose dissolution studies of new room-temperature ionic liquids derived from lignin” (Biotechnology for Biofuels, 2021)
Where two headings read alike, the source gives them in different places.

Columns and labels:
E. coli strain 1A1 = test: Broth dilution assay (antibiotic assay), growth at 600 nm after 24 h; format: cell-based
Description: (§1) To determine if the antibacterial activity of 5 was due to pH effects, an additional broth dilution assay was performed using sodium hydroxide as a positive control.
E. coli strain 1A1 [43] was obtained from the microbial strain repository at the Joint Bioenergy Institute at Lawrence Berkeley National Laboratory. A 10 mL culture in Luria Broth (LB) media was grown for 18 h at 37 °C with shaking at 200 rpm. The culture was then diluted into LB media to an absorbance of 0.05 at 600 nm, and added into the wells of a 96-well plate (first row = 190 µL, all other wells = 100 µL/well). Approximately 700 mg of IL was dissolved into 1 mL of methanol, and 10 µL of each IL solution was added to first row wells of the plate. A twofold serial dilution was performed down the plate by mixing and transferring 100 µL using a multi-channel pipette. To maintain isochoric conditions, 100 µL was discarded from bottommost wells. The plate was then incubated at 37 °C with shaking at 150 rpm. After 24 h incubation, E. coli growth was quantified at 600 nm using an Epoch Microplate Spectrophotometer (Gen5 software). […] All experiments were repeated 3–7 times and error bars in Fig. 5 represent standard deviation. Statistical F-test was performed to determine the appropriate t-test (i.e., equal or unequal variance) to analyze significant difference between IC50 data.

[1] = pH of LB media at the IC50 concentration; format: physicochemical; settings: at IC50 against E. coli
Description: as §1

Daphnia magna = test: 48-h acute toxicity study on D. magna; format: in vivo; settings: for IC50: Daphnia magna, 48 h, read-out: IC50 against D. magna
Description: Procedures for cultivating and performing acute toxicity assays with D. magna generally followed the US EPA protocol. Daphnia magna was cultured from stocks supplied by Aquatic Bio Systems Inc. (Fort Collins, CO). The organisms were cultured in 900-mL jars filled with moderately hard water from the recipe: 0.473 g CaSO4, 0.959 g NaHCO3, 1.223 g MgSO4·7H2O, and 0.039 g KCl per 10 L of deionized water. 2 mL of algae (Selenastrum capriconutum) containing 3.0 × 10^7 cells/mL were fed to D. magna on both Tuesdays and Thursdays with water changes as well as feedings on Saturdays. All glass jars were placed in a Thermo Scientific Precision incubator (Fischer Scientific, Hampton, NH) at a holding temperature of 20 °C and on a 12 h:12 h light:dark cycle. This procedure was conducted approximately a month prior to the beginning of the project. To prepare D. magna for use in acute experiments, three hundred adult daphnids were separated into five 1-L beakers with 60 daphnids each. These daphnids were used a week later in the experiment. All daphnid cultures followed the same protocol for feeding and water changes as mentioned previously.
A 48-h acute toxicity study was carried out to examine the toxic effects of 11 and 12 on D. magna, Glass jars were filled with moderately hard water and spiked with the appropriate concentration of IL from stock solution to a total volume of 50 mL. For each IL, 5 different concentrations were studied. Control jars were set up with only 50 mL of moderately hard water. Four replicates were used for each concentration and each replicate had four daphnids. The daphnids were placed into glass jars for each concentration of ILs. All glass jars were placed in a Thermo Scientific Precision incubator (Fischer Scientific, Hampton, NH) at a holding temperature of 20 °C and on a 12 h:12 h light:dark cycle. Mortality in each jar was recorded every 24 h.

[2] = E. coli strain 1A1, LB media, 24 h, 37 °C, read-out: IC50 (concentration of IL required to decrease bacterial growth by 50%)
[3] = Escherichia coli, 1A1, 24 h, E. coli strain 1A1, LB media, 24 h, 37 °C, read-out: IC50 (concentration of IL required to decrease bacterial growth by 50%)

Molecule `CCCC[N+](CCCC)(CCCC)CCCC` [Compound 2, Tetrabutylammonium acetate] has an IC50 (E. coli strain 1A1; Escherichia coli, 1A1, 24 h, read-out: IC50 (concentration of IL required to decrease bacterial growth by 50%), E. coli strain 1A1, LB media, 24 h, 37 °C) of 13.2 ± 2.9 mM.
With `CCCC[N+](CCCC)(CCCC)CCCC` [Compound 3, tetrabutylammonium bromide, reference compound] the IC50 (E. coli strain 1A1; read-out: IC50 (concentration of IL required to decrease bacterial growth by 50%), E. coli strain 1A1, LB media, 24 h, 37 °C) was 10 ± 1.3 mM.
Work on `C[N+](C)(C)Cc1ccccc1` [Compound 4, Benzyltrimethylammonium acetate] yielded an IC50 (E. coli strain 1A1; [2]) of 47.8 ± 0.6 mM.
In the case of `C[N+](C)(C)Cc1ccccc1` [Compound 5, benzyltrimethylammonium hydroxide, reference compound], the “pH of LB media at the IC50 concentration” value [1] is reported as 8.5 and the IC50 (E. coli strain 1A1; [2]) is reported as 10.4 ± 0.3 mM.
In the case of `COc1ccc(C[N+](C)(C)C)cc1` [Compound 6], the IC50 (E. coli strain 1A1; [3]) is reported as 11.6 ± 1.7 mM.
`COc1cc(C[N+](C)(C)C)cc(OC)c1OC` [Compound 7] gave an IC50 (E. coli strain 1A1; [3]) of 22.2 ± 0.8 mM.
`COc1ccc(C[N+](C)(C)C)cc1OC` [Compound 8] gave an IC50 (E. coli strain 1A1; [3]) of 48.2 ± 3.3 mM.
In the case of `CC[N+](C)(CC)Cc1ccc(OC)c(OC)c1` [Compound 9, N-(3,4-Dimethoxybenzyl)-N-ethyl-N-methylethanaminium acetate], the IC50 (E. coli strain 1A1; [3]) is reported as 19.6 ± 0.4 mM.
`CCC[N+](C)(CCC)Cc1ccc(OC)c(OC)c1` [Compound 10, N-(3,4-Dimethoxybenzyl)-N-methyl-N-propylpropan-1-ammonium acetate] showed an IC50 (E. coli strain 1A1; [3]) of 17.7 ± 0.9 mM.
For `COc1ccc(C[N+](C)(C)C)cc1OC` [Compound 11], the “fold reduction of toxicity of the methanesulfonate compared with the acetate anion (8)” value (E. coli strain 1A1; E. coli, vanillin-derived N,N,N-trimethyl cation) was 1.6 fold, the IC50 (E. coli strain 1A1; Escherichia coli, 1A1, 24 h, read-out: IC50 (concentration of IL required to decrease bacterial growth by 50%)) was 78.7 ± 2.5 mM and the “fold by which IC50 against D. magna is lower than IC50 against E. coli” value (Daphnia magna; 0.319 mM vs 78.7 mM) was “approximately 250 fold”. For the same molecule, the IC50 (Daphnia magna) was 0.319 ± 0.066 mM.
For `COc1cc(C[N+](C)(C)C)cc(OC)c1OC` [Compound 12], the “fold more toxic to D. magna than vanillin-derived IL 11” value (Daphnia magna; 48-h acute toxicity) was 2.6 fold and the IC50 (Daphnia magna) was 0.123 ± 0.012 mM.
With `[Na+].[OH-]` [NaOH, sodium hydroxide, reference compound] the “pH of LB media at the IC50 concentration” value [1] was 9.4 and the IC50 (E. coli strain 1A1; [2]) was 25.5 mM.
